Our source for the stability of emulsion values is patent US20060134056A1, “Use of alkylguanidines as cationic emulsifiers” (G[…], priority 2004, published 2006).

The data set can be described thus: storage stability of O/W emulsions. Type of data set: physicochemical. The settings on record: O/W emulsion with 0.5% emulsifier; room temperature, 45° C. and freeze-thaw cycles (3×−15° C.). The method, then:
Here, it was paaticulaily surprising that stable emulsions were obtainale even at emulsifier concentrations of 0.5% stearylguanidinium acetate (6 months stability at room temperature, 45° C. and freeze-thaw cycles (3×−15° C.)).
In addition, emulsions 7 to 8 also illustrate the excellent emulsifying properties of other alkylguanidinium salts.

`CC(=O)O.CCCCCCCCCCCCCCCCCCNC(=N)N` [stearylguanidinium acetate] had a stability of emulsion of 6 months.
